Laboratory results: patent publication US20130023494A1, “MODULATORS OF THE GPR119 RECEPTOR AND THE TREATMENT OF DISORDERS RELATED THERETO” (ARENA PHARMACEUTICALS, INC., priority 2010, published 2013)

Experiments:
hGPR119 = target: T1, hGPR119 (Homo sapiens, UniProt Q8TDV5); test: HTRF cAMP assay in CHO-K1 cells stably expressing the GPR119 receptor; assay type: cell-based; conditions: 1 h room temperature
T1 construct: expressed in transfected cells
T1 sequence (Q8TDV5 2-335 limits assumed): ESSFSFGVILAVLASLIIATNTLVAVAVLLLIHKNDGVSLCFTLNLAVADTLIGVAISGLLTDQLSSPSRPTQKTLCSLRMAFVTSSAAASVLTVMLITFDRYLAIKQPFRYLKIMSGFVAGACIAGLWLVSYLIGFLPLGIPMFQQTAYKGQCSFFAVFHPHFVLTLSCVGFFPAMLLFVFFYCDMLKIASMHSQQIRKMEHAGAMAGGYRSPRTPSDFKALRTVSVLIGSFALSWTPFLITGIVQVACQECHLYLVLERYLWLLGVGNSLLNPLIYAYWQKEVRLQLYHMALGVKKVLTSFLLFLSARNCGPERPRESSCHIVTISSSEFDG
Protocol: GPR119 agonists were evaluated in an HTRF® cAMP detection assay according to the manufacturer's instructions (Cisbio, cAMP Dynamic 2 Assay Kit; #62AM4PEJ) using CHO-K1 cells stably expressing the GPR119 receptor. Briefly, CHO-K1 cells were transduced with a lentiviral vector encoding the nucleotide sequence of GPR119 (NCBI mRNA and protein reference sequences: NM_178471.2 & NP_848566, (GPR119 has also been referred to as Glucose-Dependent Insulinotropic Receptor (GDIR)). The N-terminus of the GPR119 nucleotide sequence was modified to replace the first, methionine-coding codon with a nucleotide sequence coding for a standard, nine amino acid, hemagglutinin tag. Following transduction, cells expressing the GPR119 receptor were isolated and a single clone was isolated following standard dilution-cloning procedures. On the day of the assay, cultured CHO-GPR119 cells were harvested, suspended in assay buffer and plated into 384-well assay plates (PerkinElmer Proxiplate #6008280) at a density of 2,000 cells per well. A cAMP standard curve was added to each plate. Test compounds were solubilized in DMSO, serially diluted in DMSO and then diluted in assay buffer before adding to the cells. Test compounds were evaluated in triplicate, using 10-point, 5-fold serial dilutions starting at 10 μM. The final DMSO concentration in the assay was 0.5%. Compounds and cells were incubated for 1 h at room temperature and then detection reagents were added to each well (cAMP-D2 in cell lysis buffer, followed by europium cryptate-labeled anti-cAMP antibody). Plates were then incubated at room temperature for 1 h prior to reading. Time-resolved fluorescence measurements were collected on PerkinElmer Envision™ or BMG Pherastar™ microplate readers. The compound N-(2-fluoro-4-(methylsulfonyl)phenyl)-6-(4-(3-isopropyl-1,2,4-oxadiazol-5-yl)piperidin-1-yl)-5-nitropyrimidin-4-amine was used as a positive control in each runset while assay buffer containing 0.5% DMSO was used as the negative control. The HTRF® assay was used to determine EC50 values for GPR119 agonists.

male 129SVE mice = test: Oral glucose tolerance test (oGTT) in male 129SVE mice; assay type: in vivo, mouse; conditions: for % Inhibition of Glucose Excursion: AUC reduction relative to vehicle
Protocol: Male 129SVE mice (approximately 8-week old) were fasted for 18 h and randomly grouped (n=6) to receive a GPR119 agonist (Compound 28) at 1, 3, or 10 mg/kg (mg/kg body weight). The compound was delivered orally via a gavage needle (p.o., volume 4 mL/kg) 30 minutes prior to glucose bolus (3 g/kg) (time=−30 min in FIG. 5), with a separate group receiving vehicle (20% hydroxypropyl-beta-cyclodextrin) as control. At time 0 min the glucose bolus was administered. Levels of blood glucose were assessed using a glucometer (One-Touch Ultra™, LifeScan) at time −30 minute (prior to compound administration), at 0 min (at time when glucose bolus was given), and at 20, 40, 60, 120 minutes post glucose bolus. The plasma glucose excursion curve is given in FIG. 5, and glucose excursion AUC (area under the curve) reduction in compound treated animals relative to vehicle control is given in FIG. 6, and in Table 2.

male diabetic ZDF rats = test: Oral glucose tolerance test (oGTT) in male diabetic ZDF rats; assay type: in vivo, rat; conditions: for % Inhibition of Glucose Excursion (dose: mg/kg): ZDF rats, glucose excursion AUC reduction relative to vehicle; for blood glucose after challenge with glucose: diabetic ZDF rats
Protocol: FIGS. 1 to 4, 16 and 17 show results of three independent experiments with three representative GPR119 agonists of the present invention, namely, Compound 28, Compound 62, and Compound 83. In each experiment, male ZDF rats (approximately 10-week old) were fasted for 18 hours and randomly grouped (n=6) to receive a GPR119 agonist (Compound 28, Compound 62, or Compound 83) at indicated doses (mg/kg body weight). Compounds were delivered orally via a gavage needle (p.o., volume 4 mL/kg) 1 h prior to glucose bolus (3 g/kg) (time=−60 min in FIGS. 1, 3, and 16), with a separate group receiving vehicle (20% hydroxypropyl-beta-cyclodextrin) as control in each experiment. At time 0 min the glucose bolus was administered. Levels of blood glucose were assessed using a glucometer (One-Touch Ultra™, LifeScan) at time −60 min (prior to compound administration), at 0 min (time when glucose bolus was given), and at 30, 60, 90, 120 min post glucose bolus. The plasma glucose excursion curves are given in FIGS. 1, 3, and 16, and glucose excursion AUC (area under the curve) reductions in compound treated animals relative to vehicle control are given in FIGS. 2, 4, and 17, and in Table 1.

incretin hormone GIP = test: Incretin hormone GIP release in male 129SVE mice (Total GIP ELISA); assay type: in vivo, mouse; conditions: 10 mpk p.o., plasma sample after 45 min, PET vehicle 72.5
Protocol: Male 129SVE mice (approximately 8-week old) were fasted for 18 h and randomly grouped (n=6) to receive a GPR119 agonist (Compound 28, Compound 73, Compound 71, Compound 62, and Compound 30) at 10 mpk dose (mg/kg body weight). Compounds were delivered orally via a gavage needle (p.o., volume 4 mL/kg), and after 45 min a blood sample was collected to determine plasma total GIP levels. A separate group received vehicle (PET: 80% PEG:10% Ethanol:10% Tween80™) as control. Plasma GIP levels were determined using a Total GIP ELISA kit from Millipore.

[1] = 10 mg/kg p.o. 1 h prior to glucose bolus (3 g/kg)
[2] = 30 mg/kg p.o. 1 h prior to glucose bolus (3 g/kg)

Row | SMILES | EC50 (hGPR119) | Total GIP, pg/mL (dose, mg/kg) (incretin hormone GIP) | other results
1 | CC(C)c1noc(N2CCC(O[C@H]3CC[C@H](Oc4cnc(C(=O)N(C)C)cn4)CC3)CC2)n1 [Compound 98, 5-((1r,4r)-4-(1-(3-isopropyl-1,2,4-oxadiazol-5-yl)piperidin-4-yloxy)cyclohexyloxy)-N,N-dimethylpyrazine-2-carboxamide] | 152 nM |  | 
2 | Cc1nc(S(C)(=O)=O)ccc1O[C@H]1CC[C@H](OC2CCN(C(=O)SC(C)C)CC2)CC1 [Compound 116, S-isopropyl 4-((1r,4r)-4-(2-methyl-6-(methylsulfonyl)pyridin-3-yloxy)cyclohexyloxy)piperidine-1-carbothioate] | 5 nM |  | 
3 | CC(C)(C)OC(=O)N1CCC(O[C@H]2CC[C@H](Oc3ccc(S(C)(=O)=O)cc3F)CC2)CC1 [Compound 5, tert-butyl 4-((1r,4r)-4-(2-fluoro-4-(methylsulfonyl)phenoxy)cyclohexyloxy)piperidine-1-carboxylate] | 8 nM |  | 
4 | C=C(C)c1noc(N2CCC(O[C@H]3CC[C@H](Oc4cnc(S(C)(=O)=O)cn4)CC3)CC2)n1 [Compound 69, 5-(4-((1r,4r)-4-(5-(methylsulfonyl)pyrazin-2-yloxy)cyclohexyloxy)piperidin-1-yl)-3-(prop-1-en-2-yl)-1,2,4-oxadiazole] | 31 nM |  | 
5 | CC(C)OC(=O)N1CCC(O[C@H]2CC[C@H](Oc3cnc(S(C)(=O)=O)cn3)CC2)CC1 [Compound 28, isopropyl 4-((1r,4r)-4-(5-(methylsulfonyl)pyrazin-2-yloxy)cyclohexyloxy)piperidine-1-carboxylate] |  | 468.1 pg/mL | blood glucose after challenge with glucose (male 129SVE mice): lowered blood glucose; % Inhibition of Glucose Excursion (male 129SVE mice; 1 mg/kg p.o. 30 minutes prior to glucose bolus (3 g/kg)): 24.9%; % Inhibition of Glucose Excursion (male 129SVE mice; 3 mg/kg p.o. 30 minutes prior to glucose bolus (3 g/kg)): 26.4%; % Inhibition of Glucose Excursion (male 129SVE mice; 10 mg/kg p.o. 30 minutes prior to glucose bolus (3 g/kg)): 35.7%; % Inhibition of Glucose Excursion (dose: mg/kg) (male diabetic ZDF rats; [1]): 54.7% (10); % Inhibition of Glucose Excursion (dose: mg/kg) (male diabetic ZDF rats; [2]): 76.5% (30); blood glucose after challenge with glucose (male diabetic ZDF rats): lowered blood glucose
6 | CS(=O)(=O)c1cnc(O[C@H]2CC[C@H](OC3CCN(C(=O)OC(CF)CF)CC3)CC2)cn1 [Compound 71, 1,3-difluoropropan-2-yl 4-((1r,4r)-4-(5-(methylsulfonyl)pyrazin-2-yloxy)cyclohexyloxy)piperidine-1-carboxylate] |  | 379.8 pg/mL | 
7 | CC(C)OC(=O)N1CCC(O[C@H]2CC[C@H](Oc3ccc(S(C)(=O)=O)cc3F)CC2)CC1 [Compound 13, isopropyl 4-((1r,4r)-4-(2-fluoro-4-(methylsulfonyl)phenoxy)cyclohexyloxy)piperidine-1-carboxylate] | 19 nM |  | 
8 | CC(C)OC(=O)N1CCC(O[C@H]2CC[C@H](Oc3cnc(-c4ccnnc4)cn3)CC2)CC1 [Compound 77, isopropyl 4-((1r,4r)-4-(5-(pyridazin-4-yl)pyrazin-2-yloxy)cyclohexyloxy)-piperidine-1-carboxylate] | 281 nM |  | 
9 | CCC(F)(F)C(=O)N1CCC(O[C@H]2CC[C@H](Oc3ccc(S(C)(=O)=O)cc3)CC2)CC1 [Compound 48, 2,2-difluoro-1-(4-((1r,4r)-4-(4-(methylsulfonyl)phenoxy)cyclohexyloxy)piperidin-1-yl)butan-1-one] | 11 nM |  | 
10 | CC(C)(C)OC(=O)N1CCC(O[C@H]2CC[C@@H](Oc3ccc(S(C)(=O)=O)cc3)CC2)CC1 [Compound 1, tert-butyl 4-((1s,4s)-4-(4-(methylsulfonyl)phenoxy)cyclohexyloxy)piperidine-1-carboxylate] | 266 nM |  | 
11 | CC(C)(C)OC(=O)CN1CCC(O[C@H]2CC[C@H](Oc3ccc(S(C)(=O)=O)cc3)CC2)CC1 [Compound 35, tert-butyl 2-(4-((1r,4r)-4-(4-(methylsulfonyl)phenoxy)cyclohexyloxy)piperidin-1-yl)acetate] | 426 nM |  | 
12 | CC(C)(F)c1nc(N2CCC(O[C@H]3CC[C@H](Oc4cnc(S(C)(=O)=O)cn4)CC3)CC2)no1 [Compound 62, 5-(2-fluoropropan-2-yl)-3-(4-((1r,4r)-4-(5-(methylsulfonyl)pyrazin-2-yloxy)cyclohexyloxy)piperidin-1-yl)-1,2,4-oxadiazole] |  | 368.5 pg/mL | % Inhibition of Glucose Excursion (dose: mg/kg) (male diabetic ZDF rats; 3.3 mg/kg p.o. 1 h prior to glucose bolus (3 g/kg)): 25.7% (3.3); % Inhibition of Glucose Excursion (dose: mg/kg) (male diabetic ZDF rats; [1]): 32.7% (10); % Inhibition of Glucose Excursion (dose: mg/kg) (male diabetic ZDF rats; [2]): 48.0% (30); blood glucose after challenge with glucose (male diabetic ZDF rats): lowered blood glucose
13 | CCC(F)(F)C(=O)N1CCC(O[C@H]2CC[C@H](Oc3cnc(S(C)(=O)=O)cn3)CC2)CC1 [Compound 73, 2,2-difluoro-1-(4-((1r,4r)-4-(5-(methylsulfonyl)pyrazin-2-yloxy)cyclohexyloxy)piperidin-1-yl)butan-1-one] |  | 195.2 pg/mL | 
14 | C[C@@H](OC(=O)N1CCC(O[C@H]2CC[C@H](Oc3cnc(S(C)(=O)=O)cn3)CC2)CC1)C(F)(F)F [Compound 83, (R)-1,1,1-trifluoropropan-2-yl 4-((1r,4r)-4-(5-(methylsulfonyl)pyrazin-2-yloxy)cyclohexyloxy)piperidine-1-carboxylate] | 3 nM |  | % Inhibition of Glucose Excursion (dose: mg/kg) (male diabetic ZDF rats; 1.0 mg/kg p.o. 1 h prior to glucose bolus (3 g/kg)): 14.4% (1.0); % Inhibition of Glucose Excursion (dose: mg/kg) (male diabetic ZDF rats; 3.0 mg/kg p.o. 1 h prior to glucose bolus (3 g/kg)): 44.3% (3.0); % Inhibition of Glucose Excursion (dose: mg/kg) (male diabetic ZDF rats; [1]): 57.9% (10); blood glucose after challenge with glucose (male diabetic ZDF rats): lowered blood glucose
15 | CC(C)(F)c1noc(N2CCC(O[C@H]3CC[C@H](Oc4cnc(S(C)(=O)=O)cn4)CC3)CC2)n1 [Compound 30, 3-(2-fluoropropan-2-yl)-5-(4-((1r,4r)-4-(5-(methylsulfonyl)pyrazin-2-yloxy)cyclohexyloxy)piperidin-1-yl)-1,2,4-oxadiazole] |  | 375.7 pg/mL | 
